Test system: subjects undergoing elective laparoscopic abdominal or gynaecological surgery under general anaesthesia
Assay: Example 3: placebo-controlled dose study of compound 1 injection for the prevention of postoperation nausea and vomiting
Format: in vivo, patients
Details: for Complete response (CR) within 24 h after surgery: single intravenous bolus; for Significant nausea within 24 h after surgery: VAS score ≥ 4 cm; for subject satisfaction scores for PONV / time to the first occurrence of emesis (vomiting or retching) or administration of rescue treatment within 24 h after surgery: mean ± standard deviation
Experimental: Study period: Treatment duration: 24 h after surgery; Follow-up duration: 48 h after surgery
Protocol: This study was a multicentre, randomised, double-blind, placebo-controlled study. About 200 subjects undergoing elective laparoscopic abdominal or gynaecological surgery under general anaesthesia were planned to be enrolled and randomised at a 1 : 1 : 1 : 1 ratio into the compound 1-60 µg group (50 subjects), the compound 1-120 µg group (50 subjects), the compound 1-180 µg group (50 subjects), and the placebo group (50 subjects).
A single dose of the study drug was administered within 15 min before the end of surgery. The dosing regimen is as follows: Compound 1-60 µg group: A single dose of 60 µg of compound 1 injection was administered within 15 min before the end of surgery, via intravenous bolus injection, with an intravenous bolus injection time of not less than 30 s.
Compound 1-120 µg group: A single dose of 120 µg of compound 1 injection was administered within 15 min before the end of surgery, via intravenous bolus injection, with an intravenous bolus injection time of not less than 30 s.
Compound 1-180 µg group: A single dose of 180 µg of compound 1 injection was administered within 15 min before the end of surgery, via intravenous bolus injection, with an intravenous bolus injection time of not less than 30 s.
Placebo group: A single dose of placebo was administered within 15 min before the end of surgery, via intravenous bolus injection, with an intravenous bolus injection time of not less than 30 s.
Primary efficacy endpoint: Complete response (CR) rate at 24 h after surgery (CR is defined as no vomiting or retching and no use of rescue medication within 24 h after surgery).
Secondary efficacy endpoints: Proportion of subjects experiencing nausea after surgery; proportion of subjects experiencing significant nausea after surgery (significant nausea is defined as a VAS score ≥ 4 cm); proportion of subjects experiencing vomiting after surgery (vomiting [even with expulsion of a minimal amount of gastric contents] or retching [muscular movement of vomiting without expulsion of gastric contents]); proportion of subjects using rescue medication after surgery; time to the first occurrence of emesis (vomiting or retching) or administration of rescue treatment within 24 h after surgery, whichever occurs first; cumulative dosage of analgesic agents within 24 h after surgery; and subject and investigator satisfaction scores for PONV.
Safety endpoints: Incidence and severity of adverse events; and vital signs, 12-lead ECG, physical examination, and laboratory examinations.
Subjects who met all inclusion criteria and none of the exclusion criteria received a single dose of compound 1 injection or placebo within 15 min before the end of surgery (defined as the completion of the last suture of the wound).
The use of any antiemetic agents or agents with antiemetic effects, other than the study drug and rescue medications specified in the protocol, was prohibited from 24 h before the start of surgery (defined as the start of skin incision) to 24 h after the end of surgery. Prophylactic antiemetic treatment was prohibited.
Within 24 h after the end of surgery, if the subject experienced ≥ 1 episode of vomiting, retching, or nausea and complained of requiring antiemetic treatment, the subject received rescue antiemetic agents specified in the protocol after assessment by the investigator (tropisetron was the preferred rescue antiemetic agent; it was recommended that an initial intravenous dose of 2.5 mg be administered, followed by additional doses as needed, not to exceed 10 mg within 24 h). If tropisetron was insufficiently effective, other agents were used by the investigator in accordance with routine clinical practice.
Within 30 min after the end of surgery, a PCA pump containing morphine hydrochloride injection was initiated. Subjects self-administered analgesia by pressing the PCA pump when experiencing pain. […]

[1] = Example 3, compared with placebo

Question: How did the “investigator satisfaction scores for PONV” value (60 µg group) turn out when CC(=O)N1CC2(CCN(C(=O)[C@@H](CCCCN)NC(=O)[C@@H](CC(C)C)NC(=O)[C@@H](Cc3ccccc3)NC(=O)[C@H](N)Cc3ccccc3)CC2)C1 [Compound 1, (2R)-N-[(1R)-1-(2-acetyl-2,7-diazaspiro[3.5]nonane-7-carbonyl)-5-amino-pentyl]-2-[[(2R)-2-[[(2R)-2-amino-3-phenyl-propionyl]amino]-3-phenylpropionyl]amino]-4-methyl-pentanamide] was run?
Answer: Its value is 8.9 ± 1.84.

Question: What about the “Nausea within 24 h after surgery” value (60 µg group (N = 49)) of the same molecule?
Answer: Its value is 18 (36.7) n (%).

Question: And the “Use of rescue medication within 24 h after surgery” value (60 µg group (N = 49))?
Answer: Its value is 7 (14.3) n (%).

Question: And the “Vomiting within 24 h after surgery” value (60 µg group (N = 49))?
Answer: Its value is 12 (24.5) n (%).

Question: What about the “Complete response (CR) within 24 h after surgery” value (60 µg group (N = 49)) of the same molecule?
Answer: Its value is 36 (73.5) n (%).

Question: And the “Significant nausea within 24 h after surgery” value (“Significant nausea within 24 h” for short) (60 µg group (N = 49))?
Answer: Its value is 9 (18.4) n (%).

Question: And the “subject satisfaction scores for PONV” value (60 µg group)?
Answer: Its value is 9.0 ± 1.89.

Question: And the “time to the first occurrence of emesis (vomiting or retching) or administration of rescue treatment within 24 h after surgery” value (60 µg group)?
Answer: Its value is 18.3109 ± 9.6700 h.

Question: What about the “CR rate at 24 h after surgery, comparison among dose groups” value (120 µg group) of the same molecule?
Answer: Its value is “highest CR rate”.

Question: What about the “investigator satisfaction scores for PONV” value (120 µg group) of the same molecule?
Answer: Its value is 8.9 ± 1.71.

Question: And the “Nausea within 24 h after surgery” value (120 µg group (N = 49))?
Answer: The value was 11 (22.4) n (%).

Question: What about the “Use of rescue medication within 24 h after surgery” value (120 µg group (N = 49)) of the same molecule?
Answer: Its value is 6 (12.2) n (%).

Question: What about the “Vomiting within 24 h after surgery” value (120 µg group (N = 49)) of the same molecule?
Answer: The value was 8 (16.3) n (%).

Question: What about the “Complete response (CR) within 24 h after surgery” value (120 µg group (N = 49)) of the same molecule?
Answer: Its value is 40 (81.6) n (%).

Question: And the “Significant nausea within 24 h” value (120 µg group (N = 49))?
Answer: Its value is 7 (14.3) n (%).

Question: And the “subject satisfaction scores for PONV” value (120 µg group)?
Answer: Its value is 9.1 ± 1.52.

Question: What about the “time to the first occurrence of emesis (vomiting or retching) or administration of rescue treatment within 24 h after surgery” value (120 µg group) of the same molecule?
Answer: The value was 20.1119 ± 8.4192 h.

Question: And the “investigator satisfaction scores for PONV” value (180 µg group)?
Answer: The value was 9.0 ± 1.39.

Question: What about the “Nausea within 24 h after surgery” value (180 µg group (N = 50)) of the same molecule?
Answer: The value was 16 (32.0) n (%).

Question: What about the “Use of rescue medication within 24 h after surgery” value (180 µg group (N = 50)) of the same molecule?
Answer: The value was 8 (16.0) n (%).

Question: And the “Vomiting within 24 h after surgery” value (180 µg group (N = 50))?
Answer: The value was 9 (18.0) n (%).

Question: What about the “Complete response (CR) within 24 h after surgery” value (180 µg group (N = 50)) of the same molecule?
Answer: Its value is 39 (78.0) n (%).

Question: What about the “Significant nausea within 24 h” value (180 µg group (N = 50)) of the same molecule?
Answer: Its value is 11 (22.0) n (%).

Question: What about the “subject satisfaction scores for PONV” value (180 µg group) of the same molecule?
Answer: The value was 9.0 ± 1.65.

Question: And the “time to the first occurrence of emesis (vomiting or retching) or administration of rescue treatment within 24 h after surgery” value (180 µg group)?
Answer: The value was 19.7203 ± 8.7225 h.

Question: What about the “TEAEs leading to study withdrawal or death” value (Example 3) of the same molecule?
Answer: Its value is “no TEAEs leading to study withdrawal or death were observed”.

Question: What about the “TESAEs (treatment-emergent serious adverse events)” value (Example 3) of the same molecule?
Answer: Its value is “No TESAEs (treatment-emergent serious adverse events) occurred”.

Question: What about the overall safety (Example 3) of the same molecule?
Answer: The overall safety was “good overall safety”.

Question: And the “severity of TEAEs and ADRs” value (Example 3, all TEAEs and ADRs)?
Answer: Its value is “Grade 1-2”.

Question: What about the “incidence of ADRs” value [1] of the same molecule?
Answer: The value was “slightly higher than that in the placebo group”.

Question: And the “overall incidence of TEAEs” value [1]?
Answer: The value was “lower than that in the placebo group”.

Question: And the “proportion of subjects experiencing nausea, severe nausea, vomiting, and using rescue medication within 24 h after surgery, compared with placebo” value (each dose group)?
Answer: Its value is “lower than that in the placebo group”.

Question: And the “complete response (CR) rate at 24 h after surgery, compared with placebo” value (each dose group (60, 120, 180 µg), P < 0.05)?
Answer: The value was “higher than that in the placebo group”.

Question: What about the “PONV satisfaction scores of investigators, compared with placebo” value (each dose group, P < 0.05) of the same molecule?
Answer: The value was “higher than those in the placebo group”.

Question: And the “PONV satisfaction scores of subjects, compared with placebo” value (each dose group, P < 0.05)?
Answer: Its value is “higher than those in the placebo group”.

Question: What about the “time to the first occurrence of emesis (vomiting or retching) or administration of rescue treatment within 24 h after surgery, compared with placebo” value (each dose group, P < 0.05) of the same molecule?
Answer: Its value is “later than that in the placebo group”.

From EP4792822A1, “USE OF PEPTIDE AMIDE COMPOUND IN PREPARATION OF DRUG FOR […] AND VOMITING” (Haisco Pharmaceutical Group Co., Ltd., priority 2023, dated 2025)
